Experimental data taken from patent US20040005623A1, “Method of determining tumor sensitivities to therapeutic drugs” (priority 2002, published 2004).

Legend:
[1] = molecular target: T1, KIT Val560Gly juxtamembrane regulatory type mutant (Homo sapiens, UniProt P10721, V560G); assay: SCF-independent constitutive phosphorylation of Val560Gly mutant KIT expressed in COS cells; type: cell-based; details: inhibitor at 0.1 to 1 μM, FIG. 1 lanes 6-7
T1 construct: expressed in transfected cells; host or cells: COS cells
T1 sequence (P10721 26-976 V560G): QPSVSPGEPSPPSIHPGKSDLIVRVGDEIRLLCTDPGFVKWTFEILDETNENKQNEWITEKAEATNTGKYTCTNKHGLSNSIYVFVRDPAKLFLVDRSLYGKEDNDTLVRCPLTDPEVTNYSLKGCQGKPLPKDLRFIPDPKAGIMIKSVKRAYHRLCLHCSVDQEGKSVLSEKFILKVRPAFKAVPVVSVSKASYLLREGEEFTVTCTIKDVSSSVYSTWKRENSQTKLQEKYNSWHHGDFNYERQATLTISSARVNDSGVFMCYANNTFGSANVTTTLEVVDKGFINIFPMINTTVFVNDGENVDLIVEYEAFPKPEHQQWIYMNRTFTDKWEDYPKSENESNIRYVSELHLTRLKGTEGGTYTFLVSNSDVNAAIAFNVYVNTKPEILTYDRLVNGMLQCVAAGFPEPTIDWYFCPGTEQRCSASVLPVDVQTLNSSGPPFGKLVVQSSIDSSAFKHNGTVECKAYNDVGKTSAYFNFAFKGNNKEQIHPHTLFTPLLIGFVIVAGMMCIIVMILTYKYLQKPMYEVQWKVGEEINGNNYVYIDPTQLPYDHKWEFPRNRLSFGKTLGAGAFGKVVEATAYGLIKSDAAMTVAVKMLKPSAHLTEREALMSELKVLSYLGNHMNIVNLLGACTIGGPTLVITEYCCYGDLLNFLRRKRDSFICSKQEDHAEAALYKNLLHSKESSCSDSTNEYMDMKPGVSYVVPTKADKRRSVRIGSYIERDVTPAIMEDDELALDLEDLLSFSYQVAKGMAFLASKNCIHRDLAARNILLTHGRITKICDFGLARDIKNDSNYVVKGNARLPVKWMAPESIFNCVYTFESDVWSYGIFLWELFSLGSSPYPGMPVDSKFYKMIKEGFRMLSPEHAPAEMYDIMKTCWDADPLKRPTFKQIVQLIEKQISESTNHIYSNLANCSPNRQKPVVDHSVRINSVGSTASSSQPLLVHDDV
From the text: (§1) Two subclones of the human mast cell leukemia line HMC1 were used to determine if the wild type and mutant KIT enzymes were able to interact with 2 drug compounds, […] and SU9529. Set forth as SEQ ID NO:1 is a nucleotide sequence for the wild type KIT enzyme (amino acid sequence is set forth as SEQ ID NO:2). One subclone, HMC1.1, expressed a valine to glycine substitution in codon 560 (Val560Gly) of the KIT intracellular juxtamembrane region. The other, HMC1.2, expressed the Val560Gly mutation and a second substitution, aspartate to valine in codon 816 (Asp816Val) in the kinase enzymatic pocket. […] For additional study of wild type and specific mutant forms of KIT, COS cells were used for transient expression of human wild-type and mutated c-KIT complementary DNAs, as described previously by Ma et al., “Inhibition of spontaneous receptor phosphorylation by residues in putatitive α-helix in the KIT intracellular juxtamembrane region,” J. Biol. Chem., 274:13399-13402 (1999). ST1571 is a commercially available drug manufactured by Novartis and developed as an inhibitor of the c-abl gene product. ST1571 has been reported to inhibit wild-type KIT and KIT expressed by HMC1. The other compound, SU9529, is manufactured by SUGEN and has not yet been made commercially available, although it has been published. […]

[2] = molecular target: T2, wild-type KIT (Homo sapiens, UniProt P10721); assay: SCF-induced phosphorylation of wild-type KIT transiently expressed in COS cells (antiphosphotyrosine blot); type: cell-based; set-up: expressed in transfected cells; host or cells: COS cells; details: inhibitor at 0.1 to 1 μM, 1 hour, FIG. 1 lanes 3-4
From the text: as §1
Target sequence in this assay (P10721 26-976): as the sequence (P10721 26-976 V560G) above, with G535V counted along it

[3] = molecular target: KIT expressed by HMC1 (Homo sapiens, UniProt P10721, V560G); details: has been reported; cited from earlier work
KIT expressed by HMC1, sequence (P10721 26-976 V560G): as the sequence (P10721 26-976 V560G) above

[4] = molecular target: T2, wild-type KIT; details: has been reported; cited from earlier work
Target sequence in this assay (P10721 26-976, species assumed): as the sequence (P10721 26-976 V560G) above, with G535V counted along it

[5] = tested on: HMC1 line; details: at 1 μM; cited from earlier work

Cc1ccc(NC(=O)c2ccc(CN3CCN(C)CC3)cc2)cc1Nc1nccc(-c2cccnc2)n1 [ST1571]
inhibition of SCF-independent constitutive phosphorylation of Val560Gly KIT [1]: inhibit
inhibition of SCF-induced phosphorylation of wild-type KIT [2]: prevent the phosphorylation
reported inhibition of KIT expressed by HMC1 [3]: inhibit
reported inhibition of wild-type KIT [4]: inhibit
previously reported ability to kill an HMC1 line [5]: kill
